Source: EP0562731A1, “Substituted pyridinesulfonamide compounds or their salts, process for preparing the same, and herbicides containing the same” (ISHIHARA SANGYO KAISHA, Ltd., priority 1992, dated 1993)

Legend:
Format in all cases: in vivo
[1] = tested on: velvet leaf (Abutilon theophrasti); test: Test Example 2: foliar application pot test, visual herbicidal effect rating, single and combined herbicides; conditions: velvet leaf 1.2-leaf stage, 25 days after foliar application; note: ranges in brackets are in %
Text: 1/10000-are pot was filled with upland farming soil and sown with velvet leaf (Abutilon theophrasti). When the plant reached the 1.2-leaf stage, a predetermined amount of the herbicide of the present invention diluted with 5 ℓ of water per are and admixed with 0.1 vol%, based on the aqueous solution, of an agricultural spreader ("Kusa Rino", produced by Nihon Nohyaku Co., Ltd.) was foliarly applied to the plant with a small spray gun. The herbicidal effect was visually observed 25 days after the foliar application and evaluated according to the rating system shown below.

[2] = tested on: prickly sida (Sida spinosa); test: Test Example 1: foliar application pot test, visual growth control rating; parameters: key: 1: the same as in an untreated plot; 10: perfect growth control; conditions: 1.25 g/a active ingredient, wettable powder, observed 20 to 31 days after application
Text: (§1) 1/1,500 are [are (a) = 100 m²] pots were filled with upland farming soil, which in the pots was then sown with a variety of plants. The plants grown will be enumerated below.
(§2) When each plant reached a given growth stage (a 1.2- to 3.0-leaf stage for rice, primary leaf to a 0.7-leaf stage for soybean, 2.1- to 3.6-leaf stage for corn, cotyledon to 0.7-leaf stage for cotton, 2.0- to 3.0-leaf stage for wheat, 0.3- to 3.4-leaf stage for cocklebur, 0.3- to 1.6-leaf stage for morning glory, 0.1- to 1.3-leaf stage for prickly sida, 0.1- to 1.3-leaf stage for slender amaranth, 1.5- to 3.2-leaf stage for barnyard glass, and 1.2- to 3.0-leaf stage for large crabgrass), a predetermined amount of the herbicide of the present invention in the form of a wettable powder, weighed out, diluted with 5 ℓ/a of water and admixed with 0.2 or 0.1 vol%, based on the resulting composition, of an agricultural spreader, was foliarly applied to the plant with a small spray gun. The progress of growth of the plant was visually observed 20 to 31 days after the foliar application to evaluate the degree of growth control according to 10 ratings (1: the same as in an untreated plot - 10: perfect growth control).

[3] = tested on: large crabgrass (Digitaria adscendens); test: as above; parameters: key: 1: the same as in an untreated plot; 10: perfect growth control; conditions: 1.25 g/a active ingredient, wettable powder, observed 20 to 31 days after application
Text: as §1, §2

[4] = tested on: morning glory (Ipomoea purpurea); test: as above; parameters: key: 1: the same as in an untreated plot; 10: perfect growth control; conditions: 1.25 g/a active ingredient, wettable powder, observed 20 to 31 days after application
Text: as §1, §2

[5] = tested on: cocklebur (Xanthium strumarium); test: as above; parameters: key: 1: the same as in an untreated plot; 10: perfect growth control; conditions: 1.25 g/a active ingredient, wettable powder, observed 20 to 31 days after application
Text: as §1, §2

[6] = tested on: barnyard grass (Echinochloa crus-galli); test: as above; parameters: key: 1: the same as in an untreated plot; 10: perfect growth control; conditions: 1.25 g/a active ingredient, wettable powder, observed 20 to 31 days after application
Text: as §1, §2

wheat (Triticum) = test: as above; parameters: key: 1: the same as in an untreated plot; 10: perfect growth control; conditions: 1.25 g/a active ingredient, wettable powder, observed 20 to 31 days after application
Text: as §1, §2

[7] = tested on: slender amaranth (Amaranthus viridis); test: as above; parameters: key: 1: the same as in an untreated plot; 10: perfect growth control; conditions: 1.25 g/a active ingredient, wettable powder, observed 20 to 31 days after application
Text: as §1, §2

corn (Zea mays) = test: as above; parameters: key: 1: the same as in an untreated plot; 10: perfect growth control; conditions: 1.25 g/a active ingredient, wettable powder, observed 20 to 31 days after application
Text: as §1, §2

rice (Oryza sativa) = test: as above; parameters: key: 1: the same as in an untreated plot; 10: perfect growth control; conditions: 1.25 g/a active ingredient, wettable powder, observed 20 to 31 days after application
Text: as §1, §2

soybean (Glycine max) = test: as above; parameters: key: 1: the same as in an untreated plot; 10: perfect growth control; conditions: 1.25 g/a active ingredient, wettable powder, observed 20 to 31 days after application
Text: as §1, §2

| Compound | Rating ([1]; 0.02 g/a) | Rating ([1]; 0.04 g/a) | Rating ([1]; 0.08 g/a) | degree of growth control, SI [2] | degree of growth control, DI [3] | degree of growth control, IP [4] | degree of growth control, XA [5] | degree of growth control, EC [6] | degree of growth control, TR (wheat (Triticum)) | degree of growth control, AM [7] | degree of growth control, ZE (corn (Zea mays)) | degree of growth control, OR (rice (Oryza sativa)) | degree of growth control, GL (soybean (Glycine max)) | Rating ([1]; 0.25 g/a) | Rating ([1]; 0.5 g/a) | Rating ([1]; 1.00 g/a) |
| --- | --- | --- | --- | --- | --- | --- | --- | --- | --- | --- | --- | --- | --- | --- | --- | --- |
| CCOC(=O)c1ccccc1S(=O)(=O)NC(=O)Nc1nc(Cl)cc(OC)n1 [Chlorimuron-ethyl, ethyl 2-[[[[(4-chloro-6-methoxy-2-pyrimidinyl)amino]carbonyl]amino]sulfonyl]benzoate] | 6 (60-69) | 8 (80-89) | 9 (90-99) |  |  |  |  |  |  |  |  |  |  |  |  |  |
| CCCCN(c1cccc(S(=O)(=O)NC(=O)Nc2nc(C)nc(OC)n2)n1)S(=O)(=O)C(C)C [Compound No. 4] |  |  |  | 6 | 3 | 6 | 9 | 7 | 2 | 9 | 10 | 8 | 4 |  |  |  |
| CS(=O)(=O)NC(=O)c1cc(Oc2ccc(C(F)(F)F)cc2Cl)ccc1[N+](=O)[O-] [Fomesafen, 5-[2-chloro-4-(trifluoromethyl)phenoxy]-N-(methylsulfonyl)-2-nitrobenzamide] |  |  |  |  |  |  |  |  |  |  |  |  |  | 3 (30-39) | 7 (70-79) | 7 (70-79) |
| CCS(=O)(=O)N(c1cccc(S(=O)(=O)NC(=O)Nc2nc(C)nc(OC)n2)n1)C(C)C [compound 6] |  |  |  | 6 | 4 | 8 | 7 | 6 | 3 | 9 | 10 | 6 | 3 |  |  |  |
| CCS(=O)(=O)N(c1cccc(S(=O)(=O)NC(=O)Nc2nc(OC)nc(OC)n2)n1)C(C)C [compound 7] |  |  |  | 3 | 2 | 6 | 7 | 2 | 2 | 9 | 10 | 3 | 3 |  |  |  |
| CCCN(c1cccc(S(=O)(=O)NC(=O)Nc2nc(OC)nc(OC)n2)n1)S(=O)(=O)CC [compound 8] |  |  |  | 3 | 5 | 4 | 6 | 5 | 3 | 7 | 5 | 3 | 4 |  |  |  |
| CCCCN(c1cccc(S(=O)(=O)NC(=O)Nc2nc(C)nc(OC)n2)n1)S(C)(=O)=O [compound 32] |  |  |  | 4 | 6 | 5 | 6 | 3 | 2 | 6 | 3 | 3 | 3 |  |  |  |
| COc1nc(C)nc(NC(=O)NS(=O)(=O)c2cccc(N(CC(C)C)S(C)(=O)=O)n2)n1 [compound 33] |  |  |  | 3 | 6 | 4 | 3 | 3 | 3 | 6 | 2 | 6 | 3 |  |  |  |
| CCN(c1cccc(S(=O)(=O)NC(=O)Nc2nc(C)nc(OC)n2)n1)S(=O)(=O)CC [compound 37] |  |  |  | 3 | 2 | 3 | 4 | 4 | 1 | 9 | 3 | 2 | 2 |  |  |  |
| CCCS(=O)(=O)N(C)c1cccc(S(=O)(=O)NC(=O)Nc2nc(C)nc(OC)n2)n1 [compound 39] |  |  |  | 3 | 4 | 5 | 5 | 3 | 3 | 9 | 3 | 3 | 4 |  |  |  |
| CCCCS(=O)(=O)N(CCC)c1cccc(S(=O)(=O)NC(=O)Nc2nc(C)nc(OC)n2)n1 [compound 42] |  |  |  | 3 | 5 | 4 | 6 | 3 | 4 | 10 | 3 | 6 | 4 |  |  |  |
| CCCCN(c1cccc(S(=O)(=O)NC(=O)Nc2nc(C)nc(OC)n2)n1)S(=O)(=O)CCCC [compound 43] |  |  |  | 3 | 6 | 3 | 6 | 3 | 3 | 5 | 3 | 2 | 4 |  |  |  |
| CCN(c1cccc(S(=O)(=O)NC(=O)Nc2nc(C)nc(OC)n2)n1)S(=O)(=O)CCl [compound 60] |  |  |  | 5 | 4 | 7 | 9 | 6 | 2 | 9 | 5 | 6 | 4 |  |  |  |
| CCCCS(=O)(=O)N(CC(C)C)c1cccc(S(=O)(=O)NC(=O)Nc2nc(C)nc(OC)n2)n1 [compound 82] |  |  |  | 1 | 3 | 6 | 9 | 4 | 4 | 7 | 8 | 4 | 3 |  |  |  |
| CCN(c1cccc(S(=O)(=O)NC(=O)Nc2nc(OC)nc(OC)n2)n1)S(=O)(=O)CC(F)(F)F [compound 92] |  |  |  | 6 | 3 | 10 | 10 | 6 | 9 | 5 | 7 | 5 | 7 |  |  |  |
